Experimental data published in ChEMBL document CHEMBL5725671, “Heterocyclic compounds useful as PDK1 inhibitors” (2018).

target: T1, 3-phosphoinositide-dependent protein kinase 1 (Homo sapiens, UniProt O15530); assay: PDK1 kinase assay: PDK1 (amino acids 51-359) and AKT2 (amino acids 140-467 fused to PIFtide, amino acids […]) were expressed as N-terminally tagged GST fusion proteins in insect cells and purified to homogeneity. Enzyme activity was determined in a coupled PDK1/AKT/FAM-crosstide assay and phosphorylation of FAM-crosstide was determined by standard IMAP protocol (Molecular Devices). For inhibition studies, compounds were titrated 4-fold in DMSO and diluted 40-fold into assay buffer (10 mM Tris HCl pH7.2; 10 mM MgCl2; 0.01% Triton X-100; 1 mM DTT) containing PDK1, AKT2, and FAM-crosstide (final concentrations: 0.75 nM PDK1, 10 nM unphosphorylated AKT2, and 100 nM crosstide substrate). The kinase reaction was initiated by adding ATP to a final concentration of 40 μM of PDK1 and incubated at 25° C. for 30 min. To detect assay product, the kinase reaction was combined with Progressive Binding Solution (1:600 Progressive Binding Reagent, 50% Buffer A, 50% Buffer B, Molecular Devices) in a 1:3 ratio. The mixture was incubated for 2 hours at 25° C. and the plate was scanned on an Analyst AD with excitation at 485 nm and emission at 530 nm. The fluorescence polarization value P is defined by the equation below. The value mP is generated by multiplying the P value for each reaction well by a factor of 1000. The value ΔmP for each well is the mP value for that well minus the mP value for the average negative control. P=(Fpar−Fperp)/(Fpar+Fperp) Eq.:Where par is fluorescence intensity parallel to the excitation plane; and perp is fluorescence intensity perpendicular to the excitation plane. ΔmP values were plotted as a function of compound concentration and the data were analyzed with a 4-parameter fit using GraphPad Prism software.; format: biochemical
T1 sequence (O15530 whole entry): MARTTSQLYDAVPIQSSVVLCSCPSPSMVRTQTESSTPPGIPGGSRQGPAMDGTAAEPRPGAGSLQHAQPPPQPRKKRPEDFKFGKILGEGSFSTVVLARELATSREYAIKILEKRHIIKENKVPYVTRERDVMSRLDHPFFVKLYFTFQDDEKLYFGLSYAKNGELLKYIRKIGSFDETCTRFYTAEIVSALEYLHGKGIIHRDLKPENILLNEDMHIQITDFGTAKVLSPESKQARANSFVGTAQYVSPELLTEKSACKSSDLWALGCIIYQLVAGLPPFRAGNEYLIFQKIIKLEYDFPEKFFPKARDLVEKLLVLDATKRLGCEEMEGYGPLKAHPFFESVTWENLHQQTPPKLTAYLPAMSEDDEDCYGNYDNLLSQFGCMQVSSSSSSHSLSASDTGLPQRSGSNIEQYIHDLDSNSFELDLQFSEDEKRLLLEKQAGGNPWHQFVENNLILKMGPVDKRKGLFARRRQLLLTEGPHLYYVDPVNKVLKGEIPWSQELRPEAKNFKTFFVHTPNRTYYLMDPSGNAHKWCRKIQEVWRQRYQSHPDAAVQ

Compound | IC50 [nM]
C[C@H](NC(=O)c1cccnc1NCc1ccc(-c2cc3c(cn2)ncn3C)s1)c1ccc(F)cc1 | > 5000
COCCNC(=O)c1cccnc1NCc1ccc(-c2ccc3ncnc(N)c3c2)s1 | > 5000
Cc1ccc(NC(=O)c2cccnc2NCc2ccc(-c3ccc4ncnc(N)c4c3)s2)cc1F | > 5000
Nc1ncnc2ccc(-c3ccc(CNc4ncc(Br)cc4S(=O)(=O)NCc4ccc(F)c(F)c4)s3)cc12 | > 5000
Cc1nc(N)cnc1-c1ccc(CNc2ncc(C#N)cc2C(=O)N[C@@H](C)c2ccc(F)cc2)cc1 | > 5000
C[C@H](NC(=O)c1cccnc1NCc1ccc(-c2ccc3ncnc(NCCO)c3c2)s1)c1ccc(F)cc1 | < 100
N#Cc1cc(F)ccc1NC(=O)c1cc(C(F)(F)F)cnc1NCc1ccc(-c2cnc3[nH]nc(N)c3c2)cc1 | < 100
Nc1ncnc2ccc(-c3ccc(CNc4ncccc4C(=O)NCc4cncc(F)c4)s3)cc12 | < 100
C[C@H](NC(=O)c1nc(C#N)cnc1NCc1ccc(-c2cnc(N)c(CO)n2)cc1)c1ccc(F)c(F)c1 | < 100
C[C@H](NC(=O)c1cc(C#N)cnc1NCC#Cc1ccc2nc(N)ncc2c1)c1ccc(F)cc1 | < 100
C[C@H](NC(=O)c1nc(C(F)(F)F)cnc1N[C@H](C)c1ccc(-c2cnc3[nH]nc(N)c3c2)cc1)c1ccc(F)c(F)c1 | < 100

Further lines, results first:

IC50 [nM] | Compound
< 100 | CCc1cnc(NCc2ccc(-c3ccc4ncnc(N)c4c3)s2)c(C(=O)NCc2ccc(F)c(F)c2)c1
< 100 | C[C@H](NC(=O)c1nc(C#N)cnc1NCC#Cc1ccc2nc(N)ncc2c1)c1ccc(F)c(F)c1
< 100 | C[C@H](NC(=O)c1nc(C(F)(F)F)cnc1NCc1ccc(-c2cnc3[nH]nc(N)c3c2)cc1)c1ccc(F)c(F)c1
< 100 | C[C@H](NC(=O)c1cc(C#N)cnc1N[C@H](C)c1ccc(-c2cnc3[nH]nc(N)c3c2)nc1)c1ccc(F)cc1
< 100 | C[C@H](NC(=O)c1cc(C#N)cnc1NCc1ccc(-c2cnc3[nH]c(=O)[nH]c3c2)c(F)c1)c1ccc(F)cc1
< 100 | C[C@H](NC(=O)c1cc(C#N)cnc1NCc1ccc(-c2cnc3[nH]nc(N)c3c2)cc1F)c1ccc(F)cc1
< 100 | C[C@H](NC(=O)c1nc(C#N)cnc1N[C@H](C)c1ccc(-c2cnc3[nH]nc(N)c3c2)nc1)c1ccc(F)c(F)c1
< 100 | C[C@H](NC(=O)c1cc(C#N)cnc1NCc1ccc(-c2cnc3[nH]nc(N)c3c2)cc1Cl)c1ccc(F)cc1
< 100 | C[C@H](NC(=O)c1cc(C#N)cnc1NCc1ccc(-c2cnc3[nH]c(=O)n(C)c3c2)cc1)c1ccc(F)cc1
< 100 | Nc1ncc(-c2ccc(CNc3ncc(C(F)(F)F)cc3C(=O)Nc3ccc(F)cc3)cc2)nc1CO
< 100 | N#Cc1cnc(NCc2ccc(-c3cnc4[nH]ncc4c3)cc2)c(C(=O)NCc2ccc(F)c(F)c2)c1
